US20230001010A1, “COMPOSITIONS AND METHODS FOR TREATING AUTOIMMUNE DISORDERS” (The Regents of the University of Michigan, priority 2019, published 2023)

Columns and labels:
[1] = Antigen / drug loading efficiency in HDL nanodiscs (HPLC/MS); format: physicochemical; settings: for drug encapsulate efficiencies: drug in HDL nanodiscs, HPLC-MS
Procedure: (§1) HDL nanodisc was prepared as previously described. Briefly, DMPC was dissolved in chloroform, which was evaporated with nitrogen flow and under vacuum for at least 1 h. The resulting lipid film was hydrated in 10 mM sodium phosphate buffer and sonicated in a bath sonicator for 10 min. ApoA1 mimetic peptide 22A dissolved in endotoxin free water was added to the above mixture (22A:DMPC=1:2 weight ratio) to obtain nanodiscs. To load MOG antigen peptide in nanodiscs, each antigen peptide was reacted with 4-(4-maleimidophenyl)-butyric DOPE for 3 h in dimethylformamide (DMF), which was removed by freeze-drying after dilution 10× with endotoxin-free water. The lipid-peptide conjugates were dissolved in DMSO and added to pre-formed sHDL and incubated for 30 min at room temperature. Unreacted MOG peptides were removed by using Zeba Spin Desalting columns (Pierce) following the manufacturer's instructions. The conjugation efficiency of MOG peptide was determined by LC-MS and gel permeation chromatography (GPC). EAE was induced in female C57BL/6 mice by inoculation with 100 μg of MOG in complete Freund's adjuvant on day 0 following the administration of pertussis toxin. Mice were then injected subcutaneously at tail base for therapeutic study with sHDL-MOG, MOG or PBS on indicated days. Mice were weighed and scored daily based on the following guideline: 0, no sign of disease; 1, loss of tone in the tail; 2, hind limb paresis; 3, hind limb paralysis; 4, tetraplegia; and 5, moribund.
To produce HDL nanodiscs carrying immunomodulatory drugs, 22A, and DMPC were dissolved in acetic acid and freeze-dried overnight as shown above. Drugs (FTY720, ITE, TSA, or SAHA) were dissolved in chloroform and added to lyophilized powder, followed by drying overnight in vacuum oven. Dried samples were rehydrated by 10 mM phosphate buffer. After three heat-cooling cycles, HDL-loaded with drugs were performed. The concentration of each drug was measured by HPLC-MS as shown for FTY720, ITE, TSA, or SAHA (FIGS. 14-17, respectively). Free drugs were used to generate standard curves. […] Samples were also analyzed by dynamic light scattering (DLS) for the particle sizes. […] We also analyzed HDL-FTY720 samples using gel permeation chromatography (GPC) (FIG. 19).
We synthesized HDL nanodiscs loaded with other CD4+ T cell epitopes for validation of our approach. We have synthesized phospholipids conjugated to either Ea chain 52-68 peptide (EA, ASFEAQGALANIAVDKA (SEQ ID NO: 831)), ovalbumin-II 323-339 peptide (OVA-II, ISQAVHAAHAEINEAGR (SEQ ID NO: 832)), and type-II collagen 250-270 peptide (CIA, […] (SEQ ID NO: 833)), each modified with CSS-peptide at N-terminus. Antigen-lipid conjugates were loaded into HDL nanodiscs as described above and analyzed by HPLC/MS and DLS. EA, OVA-II, and CIA peptides were conjugated to MPB-phospholipids with ˜95% conjugation efficiency (FIGS. 22-25). Antigen-lipid conjugates were efficiently loaded into HDL nanodiscs with ˜90%, ˜84%, and ˜78% loading efficiency for EA, OVA-II, and CIA peptides, respectively (FIGS. 22-25).

[2] = Lymph node draining / biodistribution of TMR-labelled antigen after s.c. administration; format: in vivo, C57BL/6 mice; settings: naive mice, after one day
Procedure: Tetramethylrhodamine (TMR, excitation/emission ˜540/560 nm) modified MOG peptide (CSSGWYRSPFSRVVHL-TMR, MOG-TMR SEQ ID NO: 829) was prepared by reacting TMR-NHS and MOG peptide according to the manufacturer's instruction. MOG-TMR was purified using HPLC and reacted with DOPE-MAL in DMF to produce DOPE-Mal-MOG-TMR (MOG-TMR). Next, the DMF solution was diluted with water, freeze-dried, dissolved in DMSO, and added to previously made HDL to produce HDL-MOG-TMR. Conjugation of MOG-TMR to DOPE-MAL and incorporation of MOG-TMR in HDL were measured by HPLC/MS, as indicated above. For the lymph node draining studies, naive female C57BL/6 mice or EAE-induced mice were administered s.c. at tail base with HDL-MOG-TMR or free MOG-TMR containing antigen peptide (100 μg per mouse) in 100 μl volume. After 24, 96, and 196 hr, animals were euthanized, organs were harvested, and TMR signal was measured with an IVIS optical imaging system (Caliper Life Sciences). Inguinal lymph nodes and spinal cord were cut into small pieces and passed through a 70-μm cell strainer, washed two times, and stained with the indicated antibodies, followed by flow cytometry analysis.

[3] = system: experimental autoimmune encephalomyelitis (EAE); experiment: Experimental autoimmune encephalomyelitis (EAE) mouse model, pathological score; format: in vivo, C57BL/6 mice
Procedure: as §1
EAE-induced mice were administered s.c. with PBS or HDL-MOG on days 15, 22, and 29, and a subset of animals also received i.p. administration of […] to deplete Tregs at the specified time points (FIG. 13).
We examined the therapeutic potential of HDL-FTY720 in the EAE model. EAE was initiated as described above. Briefly, EAE was induced in mice as indicated above. Mice received i.p. administration of PBS or HDL-FTY720 (1 mg/kg) on days 14, 21, and 28. Mice were scored daily and assigned EAE scores as indicated above.

GPKGQTGKPGIAGFKGEQGPK [CIA, type-II collagen 250-270 peptide, modified with CSS-peptide at N-terminus]
loading efficiency in HDL ([1]; antigen / antigen-lipid conjugate loaded into HDL nanodiscs, HPLC/MS): ~78%

CSSGWYRSPFSRVVHL-TMR [MOG-TMR]
TMR signal in inguinal dLNs [2]: minimal TMR signal

CC(/C=C/C(=O)NO)=C\[C@@H](C)C(=O)c1ccc(N(C)C)cc1 [TSA, Trichostatin A]
drug encapsulate efficiencies [1]: ~80%

O=C(CCCCCCC(=O)Nc1ccccc1)NO [SAHA, Suberoylanilide hydroxamic acid]
drug encapsulate efficiencies [1]: ~100%

CCCCCCCCc1ccc(CCC(N)(CO)CO)cc1 [FTY720, Fingolimod]
EAE score ([3]; FTY720 0.3 mg/Kg oral daily for 30 days starting day 30): 3
EAE score ([3]; FTY720 1 mg/Kg oral daily for 30 days starting day 30): 1
day by which mice had to be euthanized after treatment stopped ([3]; FTY720 oral daily for 30 days starting day 15): ≤ 55 days
day by which mice had to be euthanized after treatment stopped ([3]; FTY720 oral daily for 30 days starting day 30): ≤ 90 days
EAE score ([3]; treatment started day 15: HDL-MOG s.c. days 15, 22, 29, followed 85 days, FTY720 oral daily for 30 days): above 2
